How the values were obtained:
[1] = tested on: OKT4A epitope of the CD4 receptor; experiment: CD4 immunofluorescence assay, OKT4A mAb-CD4 interaction on MT-4 cells; conditions: at 25 μg/ml
[2] = tested on: plasma; experiment: anticoagulant action determined as APTT; assay type: biochemical
Method: The compounds were dissolved in PBS of pH 7.2 and 30 μl were added to 270 μl of plasma.
APTT=activated partial thromboplastin time (seconds) APTT was determined electromechanically using standard methods.

| Molecule | inhibition of OKT4A mAb-CD4 interaction [1] | Anticoagulant action, APTT ([2]; 0.01 μg/ml) [s] | Anticoagulant action, APTT ([2]; 0.1 μg/ml) [s] | Anticoagulant action, APTT ([2]; 1 μg/ml) [s] | Anticoagulant action, APTT ([2]; 3 μg/ml) [s] | Anticoagulant action, APTT ([2]; 5 μg/ml) [s] | Anticoagulant action, APTT ([2]; 10 μg/ml) [s] | Anticoagulant action, APTT ([2]; 100 μg/ml) [s] | anticoagulant activity as side effect ([2]; in words) |
| --- | --- | --- | --- | --- | --- | --- | --- | --- | --- |
| O=C(O)C1=CC(=C(c2ccc(O)c(C(=O)O)c2)c2ccc(O)c(C(=O)O)c2)C=CC1=O [Aurintricarboxylic acid (ATA), Aurintricarboxylic acid] | completely inhibited | – | – | – | – | – | – | – | – |
| Heparin | – | 38.4 | 40.3 | 40.5 | 65 | 140 | 220 | > 400 | serious anticoagulant activity |

Source: patent publication US5869457A, “Modified proteins and their use for controlling viral infections” (Rijksuniversiteit Te Groningen, priority 1991, dated 1999)
